Results from patent US20040043403A1, “Process for determining the biological activity of epidermal growth factor receptor tyrosine kinase inhibitors” (priority 2000, published 2004).

Legend:
NCI-H520 = assay: Western blot of clusterin induction in NCI-H520 cells; assay type: cell-based, human; conditions: NCI-H520 cells (do not express EGFR), 300 nM, 24 h, vs 0.03% DMSO
Description: An EGFR tyrosine kinase inhibitor is dissolved in DMSO to obtain a 10 mM stock solution. The stock solution is further diluted in culture medium to final concentrations of 10 nM to 3 μM. 3.5 million cells/100 mm dish/12 ml culture medium are incubated for 24 h in 5% CO2 at 37° C. The medium is replaced with medium containing the EGFR tyrosine kinase inhibitor or DMSO. Cells are incubated for 4 to 32 h. The frozen pellets are lysed in 500 μl of lysis buffer (50 mM Tris-HCl pH 7.5, 1% Sodium Dodecyl Sulfate (SDS)). To shear genomic DNA, the cell lysates are processed in a FastPrep instrument for 20 sec at a speed rating of 4, using the green […] tubes (Bio101#6040-6010). Protein concentrations are determined according to the PIERCE-method (BCA Protein Assay, Reagent A and B). Protein concentration of lysates is adjusted to 1 μg/μl with lysis buffer. 4 parts of cell lysates are mixed with 1 part of 5 fold concentrated Laemmli buffer, the lysates are stored at -20° C. 40 μl of cell lysate is heated for 3 min to 95° C. and directly loaded on to 10% or 15% SDS-PAGE gels. The gels are run at 130 V for 90 min under standard conditions. The separated proteins are semi-dry blotted on to a PVDF membrane (Immobilon-P, Millipore #IPVH 202 00) for 70 min with 45 mA per blot. […]

A431 cells = assay: UniGEM 1 cDNA array expression profile of A431 cells; assay type: cell-based, human; conditions: 24 hours
Description: The following tissue culture cells are chosen because of their EGFR expression status (Table 1). EGFR expression is measured by Western blotting, using anti-EGFR monoclonal antibodies from Transduction Labs (Lexington, Ky.). The cell lines are obtained from the ATCC (Rockville, […].). The cells are cultured in 5% CO2 at 37° C.
20 million tissue culture cells (about 80% confluent) or 200 million WBCs are incubated for 2 or 24 h in culture medium containing 3 μM of an EGFR tyrosine kinase inhibitor or 0.03% DMSO. Total RNA from cell pellet is isolated using the RNeasy kit (Qiagen). mRNA is isolated using the oligotex mRNA purification kit (Qiagen). The quality of the obtained mRNA is tested by real time RT-PCR using beta-Actin primers (PE Applied Biosystems) with an amplicon size of 300 base pairs (bp). The total RNA is used as a reference to calculate the amount of mRNA-enrichment in the oligotex purified samples.
Probes for the UniGEM hybridization are synthesized by Incyte Genomics (Palo Alto, Calif., USA). For each probe 200 ng mRNA (50 ng/μl) is shipped in dry ice. The results are analyzed using the Expressionist Software Package provided by GeneData.
Expression profiles (UniGEM V arrays) of 4 tumor cell lines with different EGFR expression status (A431, NCI-H596, NCI-H520 and MDA-MB-468) and of WBCs upon exposure of cells to 3 μM of COMPOUND A for 2 or 24 h are analyzed. As control, cells treated with DMSO for the same time period are used. […] The cDNA array hybridization is repeated with the UniGEM 1 array using the same mRNA (Table 3).

With C[C@@H](Nc1ncnc2[nH]c(-c3ccc(O)cc3)cc12)c1ccccc1 [COMPOUND A, (R)-6-(4-hydroxy-phenyl)-4-[(1-phenyl-ethyl)-amino]-7H-pyrrolo[2,3-d]pyrimidine] the “Clusterin induction, Western blot (FIG. 4)” value (NCI-H520) was “no detectable clusterin levels”, the “Gene induction, Micro Array UniGEM 1: Acute phase serum amyloid A protein” value (A431 cells; 3 μM, RNA from Experiment 1) was 4.4 and the “Gene induction, Micro Array UniGEM 1: Cathepsin H” value (A431 cells; 3 μM, RNA from Experiment 1) was 2.2. The “Gene induction, Micro Array UniGEM 1: Caveolin” value (A431 cells; 3 μM, RNA from Experiment 1) was 3.4, the “Gene induction, Micro Array UniGEM 1: Complement component 3 (C3)” value (A431 cells; 3 μM, RNA from Experiment 1) was 3.1 and the “Gene induction, Micro Array UniGEM 1: Complement cytolysis inibitor (Clusterin)” value (A431 cells; 3 μM, RNA from Experiment 1) was 2.7. The “Gene induction, Micro Array UniGEM 1: DNA binding protein inhibitor ID-3” value (A431 cells; 3 μM, RNA from Experiment 1) was 2.1, the “Gene induction, Micro Array UniGEM 1: Extracellular protein S1-5” value (A431 cells; 3 μM, RNA from Experiment 1) was 3.3 and the “Gene induction, Micro Array UniGEM 1: TGF-beta induced gene” value (A431 cells; 3 μM, RNA from Experiment 1) was 2.1. The “Gene induction, Micro Array UniGEM 1: TRAIL” value (A431 cells; 3 μM, RNA from Experiment 1) was 3.0, the “Gene induction, Micro Array UniGEM 1: VAC-beta (annexin VIII)” value (A431 cells; 3 μM, RNA from Experiment 1) was 3.0 and the “Differential Expression (Balanced): Human D-type cyclin (CCND2) mRNA {IM359412}” value (A431 cells; GB Acc. No. AA010487, 3 μM, versus DMSO treated cells, negative numbers: repressed genes) was −8.2. For the same compound, the “Differential Expression (Balanced): ESTs {IM365120}” value (A431 cells; GB Acc. No. AA025124, 3 μM, versus DMSO treated cells) was 2.7, the “Differential Expression (Balanced): Human HE4 mRNA for extracellular protease {IM366323}” value (A431 cells; GB Acc. No. AA025750, 3 μM, versus DMSO treated cells) was 2.6 and the “Differential Expression (Balanced): Human mRNA for precursor of epidermal growth factor receptor {IM469272}” value (A431 cells; GB Acc. No. AA026089, 3 μM, versus DMSO treated cells) was 2.8. For the same compound, the “Differential Expression (Balanced): Human cyclin-dependent protein kinase mRNA {IM366824}” value (A431 cells; GB Acc. No. AA029438, 3 μM, versus DMSO treated cells) was 2.8, the “Differential Expression (Balanced): Human extracellular protein (S1-5) mRNA {IM470007}” value (A431 cells; GB Acc. No. AA030000, 3 μM, versus DMSO treated cells) was 3.3 and the “Differential Expression (Balanced): ESTs {IM471869}” value (A431 cells; GB Acc. No. AA035156, 3 μM, versus DMSO treated cells) was 3.0. For the same compound, the “Differential Expression (Balanced): Human nucleotide-binding protein mRNA; c {IM376052}” value (A431 cells; GB Acc. No. AA039353, 3 μM, versus DMSO treated cells, negative numbers: repressed genes) was −3.5, the “Differential Expression (Balanced): ESTs {IM485336} contains Alu repetitive elements” value (A431 cells; GB Acc. No. AA039628, 3 μM, versus DMSO treated cells, negative numbers: repressed genes) was −6.8 and the “Differential Expression (Balanced): Human 5′-AMP-activated protein kinase; g {IM376178}” value (A431 cells; GB Acc. No. AA040600, 3 μM, versus DMSO treated cells, negative numbers: repressed genes) was −4.1. The “Differential Expression (Balanced): Human mRNA for pancreatic carcinoma marker {IM376296} (Trop-2)” value (A431 cells; GB Acc. No. AA041250, 3 μM, versus DMSO treated cells) was 3.0, the “Differential Expression (Balanced): Human complement component 3 (C3) gene {IM485717}” value (A431 cells; GB Acc. No. AA041549, 3 μM, versus DMSO treated cells) was 3.1 and the “Differential Expression (Balanced): Human annexin VIII mRNA; complete cds. {IM376634} (VAC-beta)” value (A431 cells; GB Acc. No. AA046102, 3 μM, versus DMSO treated cells) was 3.0. For the same compound, the “Differential Expression (Balanced): Human mRNA for caveolin {IM488533}” value (A431 cells; GB Acc. No. AA047243, 3 μM, versus DMSO treated cells) was 3.4, the “Differential Expression (Balanced): Fibronectin {IM512287}” value (A431 cells; GB Acc. No. AA057694, 3 μM, versus DMSO treated cells, negative numbers: repressed genes) was −8.8 and the “Differential Expression (Balanced): ESTs {IM377004}” value (A431 cells; GB Acc. No. AA057780, 3 μM, versus DMSO treated cells) was 2.7. The “Differential Expression (Balanced): TransformIng growth factor-beta induced gene product (BIGH3)” value (A431 cells; GB Acc. No. AA057802, 3 μM, versus DMSO treated cells) was 2.1, the “Differential Expression (Balanced): Human mRNA for cathepsin H (E.C.3.4.22.1) {IM489348}” value (A431 cells; GB Acc. No. AA058337, 3 μM, versus DMSO treated cells) was 2.2 and the “Differential Expression (Balanced): Human fibronectin gene extra type III re {IM151144}” value (A431 cells; GB Acc. No. H03907, 3 μM, versus DMSO treated cells, negative numbers: repressed genes) was −6.9. The “Differential Expression (Balanced): ESTs {IM46265}” value (A431 cells; GB Acc. No. H09077, 3 μM, versus DMSO treated cells, negative numbers: repressed genes) was −21.9, the “Differential Expression (Balanced): Human ribosomal protein L5 pseudogene mRNA {IM50482}” value (A431 cells; GB Acc. No. H17614, 3 μM, versus DMSO treated cells, negative numbers: repressed genes) was −3.6 and the “Differential Expression (Balanced): ESTs {IM172005}” value (A431 cells; GB Acc. No. H18621, 3 μM, versus DMSO treated cells, negative numbers: repressed genes) was −3.1. The “Differential Expression (Balanced): Human acute phase serum amyloid A protein {IM161456}” value (A431 cells; GB Acc. No. H25546, 3 μM, versus DMSO treated cells) was 4.4, the “Differential Expression (Balanced): Human TNF-related apoptosis inducing ligand TRAIL {IM203132}” value (A431 cells; GB Acc. No. H54629, 3 μM, versus DMSO treated cells) was 4.0 and the “Differential Expression (Balanced): Human complement cytolysis inhibitor (CLI) mRNA; complete cds (Clusterin)” value (A431 cells; GB Acc. No. M25915, 3 μM, versus DMSO treated cells) was 2.7. For the same compound, the “Differential Expression (Balanced): ESTs {248032}” value (A431 cells; GB Acc. No. N53767, 3 μM, versus DMSO treated cells) was 2.6, the “Differential Expression (Balanced): Rat N-syndecan mRNA {IM26677}” value (A431 cells; GB Acc. No. R13994, 3 μM, versus DMSO treated cells) was 2.9 and the “Differential Expression (Balanced): Human fibronectin (fn) 3′ coding region {IM136798}” value (A431 cells; GB Acc. No. R36450, 3 μM, versus DMSO treated cells, negative numbers: repressed genes) was −4.7. For the same compound, the “Differential Expression (Balanced): ESTs {IM23605}” value (A431 cells; GB Acc. No. R39436, 3 μM, versus DMSO treated cells) was 2.6, the “Differential Expression (Balanced): PUTATIVE LYMPHOCYTE G0/G1 SWITCH PROTEIN 2 {IM67939}” value (A431 cells; GB Acc. No. T52813, 3 μM, versus DMSO treated cells, negative numbers: repressed genes) was −3.3 and the “Differential Expression (Balanced): ESTs {IM73785}” value (A431 cells; GB Acc. No. T54672, 3 μM, versus DMSO treated cells) was 2.6. The “Differential Expression (Balanced): ESTs {IM74546}” value (A431 cells; GB Acc. No. T59122, 3 μM, versus DMSO treated cells) was 2.9, the “Differential Expression (Balanced): Human mitosin mRNA; complete cds. {IM113765}” value (A431 cells; GB Acc. No. T76993, 3 μM, versus DMSO treated cells, negative numbers: repressed genes) was −3.0 and the “Differential Expression (Balanced): DNA-BINDING PROTEIN INHIBITOR ID-3 {IM323946}” value (A431 cells; GB Acc. No. W46413, 3 μM, versus DMSO treated cells) was 2.1. The “Differential Expression (Balanced): Human nuclear orphan receptor LXR-alpha {IM357775}” value (A431 cells; GB Acc. No. W95433, 3 μM, versus DMSO treated cells, negative numbers: repressed genes) was −3.0.
